Measured values published in patent US6177474A, “Polyhydroxyphenol derivatives and preventive and therapeutic agents for bone and cartilage diseases containing the same” (Hoechst Marion Roussel, priority 1996, dated 2001).

Test system: bone cells containing osteoclast cells
Assay: Pit formation assay: inhibition of osteolysis (absorption pits on ivory slices)
Format: cell-based, ICR mice
Details: for inhibition at 10 µM: Mus musculus, Osteoclast, read-out: Ratio of inhibition (%); for inhibition at 10 µM / Ratio of inhibition (%): 0% = pits with rPTH (1×10^-8 M) without medicine, 100% = no absorption pit; for Ratio of inhibition (%): 4320 min
Experimental: ICR mice 11-12 days old (purchased from Charles River Japan) were euthanized by anesthesia with ether and immediately immersed in 70% ethanol for disinfection. By the use of ophthalmologist scissors and pincers sterilized in advance with ethanol, femur and tibia were excised from the sacrificed mice and chopped into small pieces in an α-MEM culture medium (purchased from Flow Laboratories Corp.). containing 5% FBS (purchased from Irvine Scientific Corp.), 100 U/ml penicillin and 100 μg/ml streptomycin. The supernatant formed consequently was recovered by pipeting, cleaned with the culture broth, and suspended in a 5% FBS α-MEM culture broth to obtain bone cells containing osteoclast cells. The supernatant of a bone cell-floating liquid formed after 3 minutes' standing of the bone cells at rest was recovered and passed through a mesh (cell strainer, 70 μm, purchased from Falcon Corp.). The filtrate was adjusted to a cell concentration of 1×10^7 /ml and used for the pit formation assay.
An ivory piece was cut into slices, 150 μm in thickness, by the use of a precision low-speed cutting machine (purchased from Buehler Corp.). Cylindrical holes, 6 mm in diameter, were perforated in the slices by the use of a one-hole punch. The ivory slices were immersed in 70% ethanol and subjected therein to an ultrasonic cleaning treatment twice each for five minutes and washed three times with a sterilized PBS and twice with the culture medium. The ivory slices were set in place on a 96-hole culture plate (purchased from Falcon Corp.). The perforated ivory slices on the culture plate, with a culture broth containing a given compound of the present invention prepared in a concentration of 2×10^-5 M added in a fixed volume of 100 μl (final medicine concentration 1×10^-5 M) to each of the holes and a culture broth containing prepared bone cells in a concentration of 1×10^7 /ml placed in each of the holes, were cultured for three days in a 10% CO2 incubator at 37° C. After the culture, the ivory slices were placed in an aqueous 2 N sodium hydroxide and the cells on the slices were removed by the use of a rubber spatula. The ivory slices were washed with water and methanol. The absorption pits formed in the ivory slices were dyed with Coomassie Brilliant Blue and were counted under a microscope. Though the numbers of absorption pits were naturally found to disperse among test lots, depending on the ratios of varying specie s of cells in the bone cell suspensions and the lots of animals used, satisfactorily uniform test results were found in one and the same test lot. The ratio of inhibition of osteolysis was calculated on the 100% scale, in which 0% stands for the number of absorption pits found in the culture broth in the presence of rPTH (1×10^-8 M) and in the absence of a medicine and 100% for total absence of absorption pit.
The test described above was performed in a total of ten runs, Tests 1-10.
In the columns titled "Added medicine No." found in Table 2 and Table 3, the symbol (-) denotes a control involving no addition of medicine and the numerical No. denotes the No. of the compound mentioned above.

[1] = compound 10^-5 M, 3 days culture at 37° C., 10% CO2, control per test run given as (-)

| Compound | No. of absorption pits (Mean ± SD) (72 h, 10 µM) | inhibition at 10 µM (72 h, compound 10^-5 M) | No. of absorption pits (Mean ± SD) [1] | Ratio of inhibition (%) (compound 10^-5 M, 10 µM) |
| --- | --- | --- | --- | --- |
| CC(C)=CCC1=C(O)C(O)(CC=C(C)C)C(=O)C(C(=O)C(C)C)=C1O (centres unmarked) [Compound 29, 2,4-bis(3-methyl-2-butenyl)-6-(2-methyl-1-oxopropyl)-2,3,5-trihydroxycyclohexa-3,5-dienone] | 20.3 ± 2.1 | 79.5% |  |  |
| CC(C)=CCC1=C(O)C(CC=C(C)C)(CC=C(C)C)C(=O)C(C(=O)CC(C)C)=C1O [Compound 16, 3,5-dihydroxy-6-(3-methyl-1-oxobutyl)-2,2,4-tris(3-methyl-2-butenyl)cyclohexa-3,5-dienone] | 0 | 100% |  |  |
| CC(C)=CCOc1ccc(C(=O)CC(C)C)c(O)c1 [Compound 53, {2-hydroxy-4-(3-methyl-2-butenyloxy)phenyl} (2-methylpropyl) ketone] | 55.1 ± 11.1 | 67.8% |  |  |
| CC(C)=CCCC(C)=CCC1(CC=C(C)CCC=C(C)C)C(=O)C(C(=O)CC(C)C)=C(O)C=C1O (centres unmarked) [Compound 21, 2,2-bis(3,7-dimethyl-2,6-octadienyl)-3,5-dihydroxy-6-(3-methyl-1-oxobutyl)cyclohexa-3,5-dienone] | 3.5 ± 1.4 | 98.1% |  |  |
| CC(C)CC(=O)c1c(O)c(Cc2ccccc2)c(O)c(Cc2ccccc2)c1O [Compound 34, {3,5-bisbenzyl-2,4,6-trihydroxyphenyl} (2-methylpropyl) ketone] | 8.2 ± 1.9 | 95.9% |  |  |
| CC(C)=CCc1c(O)cc(O)c(C(=O)CC(C)C)c1C [Compound 50, {4,6-dihydroxy-2-methyl-3-(3-methyl-2-butenyl)phenyl} (3-methylpropyl) ketone] | 40.1 ± 7.0 | 80.1% |  |  |
| Cc1cc(O)cc(O)c1C(=O)CC(C)C [Compound 47, (2,4-dihydroxy-6-methylphenyl) (2-methylpropyl) ketone] | 179.8 ± 23.8 | 10.9% |  |  |
| CC(C)CC(=O)C1=C(O)C(Cc2ccccc2)=C(O)C(Cc2ccccc2)(Cc2ccccc2)C1=O [Compound 36, 2,2,4-trisbenzyl-6-(3-methyl-1-oxobutyl)-3,5-dihydroxycyclohexa-3,5-dienone] | 3.8 ± 0.9 | 98.1% |  |  |
| CC(C)=CCc1c(O)cc(C)c(C(=O)CC(C)C)c1O [Compound 49, {2,4-dihydroxy-6-methyl-3-(3-methyl-2-butenyl)phenyl} (2-methylpropyl) ketone] | 44.3 ± 5.4 | 78% |  |  |
| CC(C)=CCC1=C(O)C(CC=C(C)C)(CC=C(C)C)C(=O)C(C(=O)CC(C)CCCC(C)C)=C1O (centres unmarked) [Compound 22, 3,5-dihydroxy-6-(3,7-dimethyl-1-oxooctyl)-2,2,4-tris(3-methyl-2-butenyl)cyclohexa-3,5-dienone] | 3.5 ± 1.1 | 98.1% |  |  |
| CC(C)=CCc1c(O)c(CC=C(C)C)c(O)c(C(=O)Cc2ccccc2)c1O [Compound 39, {3,5-bis(3-methyl-2-butenyl)-2,4,6-trihydroxyphenyl} (phenylmethyl) ketone] | 49.2 ± 9.4 | 72.6% |  |  |
| CC(C)=CCCC(C)=CCC1(CC=C(C)CCC=C(C)C)C(=O)C(C(=O)Cc2ccccc2)=C(O)C=C1O (centres unmarked) [Compound 45, 3,5-dihydroxy-6-(phenylacetyl)-2,2-bis(3,7-dimethyl-2,6-octadienyl)cyclohexa-3,5-dienone] | 8.2 ± 1.8 | 96.4% |  |  |
| CC(C)=CCC1(CC=C(C)C)C(=O)C(C(=O)C(C)C)=C(O)C=C1O [Compound 13, 2,2-bis(3-methyl-2-butenyl)-3,5-dihydroxy-6-(2-methyl-1-oxopropyl)cyclohexa-3,5-dienone] | 16.8 ± 3.6 | 79% |  |  |
| CC(C)CCc1c(O)c(CCC(C)C)c(O)c(C(=O)CC(C)C)c1O [Compound 37, {3,5-bis(3-methylbutyl)-2,4,6-trihydroxyphenyl} (2-methylpropyl) ketone] | 14.4 ± 4.9 | 91.1% |  |  |
| CC(C)=CCCC(C)=CCc1c(O)cc(O)c(C(=O)Cc2ccccc2)c1O [Compound 46, {3-(3,7-dimethyl-2,6-octadienyl)-2,4,6-trihydroxyphenyl} (phenylmethyl) ketone] | 125.3 ± 12.6 | 44.3% |  |  |
| CC(C)CC(=O)C1=C(O)C(Cc2ccccc2)=C(O)C(O)(Cc2ccccc2)C1=O (centres unmarked) [Compound 33, 2,4-bisbenzyl-6-(3-methyl-1-oxobutyl)-2,3,5-trihydroxycyclohexa-3,5-dienone] | 9.8 ± 1.8 | 95.1% |  |  |
| CC(C)=CCC1=C(O)C(O)(CC=C(C)C)C(=O)C(C(=O)c2ccccc2)=C1O (centres unmarked) [Compound 32, 2,4-bis(3-methyl-2-butenyl)-6-benzoyl-2,3,5-trihydroxycyclohexa-3,5-dienone] | 33.9 ± 4.1 | 65.7% |  |  |
| CC(C)=CCC1=C(O)C(CC=C(C)C)(CC=C(C)C)C(=O)C(C(=O)Cc2ccccc2)=C1O [Compound 40, 3,5-dihydroxy-6-(phenylacetyl)-2,2,4-tris(3-methyl-2-butenyl)-cyclohexa-3,5-dienone] | 4.9 ± 3.8 | 96.1% |  |  |
| CC(C)=CCc1c(O)cc(O)c(C(=O)C(C)C)c1O [Compound 14, {3-(3-methyl-2-butenyl)-2,4,6-trihydroxyphenyl} (2-propyl) ketone] | 26.0 ± 2.6 | 67.5% |  |  |
| CC(C)=CCCC(C)=CCC1=C(O)C(CC=C(C)CCC=C(C)C)(CC=C(C)CCC=C(C)C)C(=O)C(C(=O)CC(C)C)=C1O (centres unmarked) [Compound 20, 3,5-dihydroxy-6-(3-methyl-1-oxobutyl)-2,2,4-tris(3,7-dimethyl-2,6-octadienyl)cyclohexa-3,5-dienone] | 3.0 ± 1.3 | 98.4% |  |  |
| CC(C)=CCC1(CC=C(C)C)C(=O)C(C(=O)CC(C)CCCC(C)C)=C(O)C=C1O (centres unmarked) [Compound 24, 2,2-bis(3-methyl-2-butenyl)-3,5-dihydroxy-6-(3,7-dimethyl-1-oxooctyl)cyclohexa-3,5-dienone] | 39.3 ± 13.9 | 75.8% |  |  |
| CC(C)CCCC(C)CC(=O)c1c(O)cc(O)cc1O (centres unmarked) [Compound 6, (2,6-dimethylheptyl) (2,4,6-trihydroxyphenyl) ketone] | 63.4 ± 12.4 | 61.4% |  |  |
| CC(C)=CCCC(C)=CCC1=C(O)C(CC=C(C)CCC=C(C)C)(CC=C(C)CCC=C(C)C)C(=O)C(C(=O)Cc2ccccc2)=C1O (centres unmarked) [Compound 44, 3,5-dihydroxy-6-(phenylacetyl)-2,2,4-tris(3,7-dimethyl-2,6-octadienyl)cyclohexa-3,5-dienone] | 7.7 ± 2.0 | 96.6% |  |  |
| CC(C)=CCOc1cc(C)c(C(=O)CC(C)C)c(O)c1 [Compound 48, {2-hydroxy-6-methyl-4-(3-methyl-2-butenyloxy)phenyl} (2-methylpropyl) ketone] | 85.2 ± 7.5 | 57.8% |  |  |
| CC(C)=CCc1c(O)ccc(C(=O)CC(C)C)c1O [Compound 54, (2,4-dihydroxy-3-(3-methyl-2-butenyl)phenyl) (2-methylpropyl) ketone] | 66.5 ± 9.7 | 61.2% |  |  |
| O=C(Cc1ccccc1)c1c(O)cc(O)cc1O [Compound 38, (phenylmethyl) (2,4,6-trihydroxyphenyl) ketone] | 55.8 ± 7.7 | 57.9% |  |  |
| {6-(3-methyl-2-butenyl)-2,4,5-trihydroxyphenyl} (2-methylpropyl) ketonemono(3-methyl-2-butenyl) ether [Compound 27] |  |  | 38.8 ± 6.6 | 80.8% |
| (2,4,5-trihydroxyphenyl) (2-methylpropyl) ketonemono(3-methyl-2-butenyl) ether [Compound 28] |  |  | 61.3 ± 5.5 | 69.6% |
